Data from patent publication US20100113276A1, “USE OF N2-PHENYLAMIDINES AS HERBICIDES” (BAYER CROPSCIENCE AG, priority 2007, published 2010).

Experiment: log P by HPLC on reversed-phase column (C18), EEC Directive 79/831 Annex V.A8
Type: physicochemical
Conditions: C18, 40° C.; for log p HCO2H: aqueous formic acid / acetonitrile; for log p H3PO4: 0.1% aqueous phosphoric acid / acetonitrile
Procedure: The log P data were determined in accordance with the EEC Directive 79/831 Annex V.A8 by HPLC (High Performance Liquid Chromatography) on a reversed-phase column (C18) using the following methods: […]
Calibration was carried out with the help of unbranched alkan-2-ones (consisting of 3 to 13 or 16 carbon atoms) with known logP values (determination of the logP values via the retention times by means of linear interpolation between two subsequent alkanones).

Row | SMILES | log p HCO2H | log p neutral | log p H3PO4 | log p acidic
1 | Cc1cc(Oc2ccc(Cl)c(C(F)(F)F)c2)c(C)cc1N=CN1CCCCC1 [compound 36] | 2.59 | 6.36 | – | –
2 | Cc1cc(N=CN2CCCCC2)c(Cl)cc1Oc1ccc(C(C)C)cc1 [compound 891] | 2.64 | 6.21 | 2.82 | –
3 | CCN(C)C=Nc1cc(C)c(Oc2cccc(C(C)C)c2)cc1Cl [compound 875] | 2.38 | 5.51 | 2.56 | –
4 | CCN(C)C=Nc1cc(Cl)c(Oc2cccc(C(C)(C)C)c2)cc1I [compound 862] | – | – | – | 2.98
5 | CCN(C)C=Nc1cc(C)c(Oc2nc(C(C)C)ns2)cc1C [compound 547] | – | 4.33 | – | 1.74
6 | Cc1cc(Oc2ccc(Cl)c(C(C)C)c2)c(Cl)cc1N=CN(C)C1CC1 [compound 402] | 2.96 | 6.60 | – | –
7 | Cc1cc(N=CN(C)C(C)C)c(Cl)cc1Oc1ccc(Cl)c(C(C)C)c1 [compound 899] | 2.92 | 6.45 | 3.07 | –
8 | Cc1cc(Oc2cc(Cl)cc(Br)c2)c(C)cc1N=CN(C)C(C)C [compound 328] | – | 6.81 | – | 2.70
9 | CCCN(C)C=Nc1cc(Cl)c(Oc2ccc(Cl)c(CC)c2)cc1C [compound 584] | 2.84 | 6.54 | – | –
10 | CCc1cc(Oc2cc(C)c(N=CN(C)C3CC3)cc2Cl)ccc1Cl [compound 585] | 2.89 | 6.34 | – | –
11 | Cc1cc(N=CN2CCCCC2)c(Cl)cc1Oc1ccc(Cl)c(C(C)C)c1 [compound 901] | 3 | 6.72 | 3.12 | –
12 | CCN(C)C=Nc1cc(C)c(Oc2cccc(C(C)(CC)OC)c2)cc1C (centres unmarked) [compound 502] | – | – | – | 2.30
13 | CCN(C)C=Nc1cc(Cl)c(Oc2ccc(Cl)c(C(F)(F)F)c2)cc1Cl [compound 816] | 2.65 | 5.56 | 2.6 | –
14 | CCN(C)C=Nc1cc(F)c(-c2ccc(Cl)c(C(F)(F)F)c2)cc1C [compound 656] | – | – | – | 2.37
15 | CCN(C)C=Nc1cc(Cl)c(Oc2ccc(Cl)c(C(C)C)c2)cc1C [compound 570] | 2.95 | 6.37 | – | –
16 | Cc1cc(-c2ccc(Cl)cc2C)c(C)cc1N=CN(C)C [compound 393] | – | 5.62 | – | 2.24

Row | SMILES | log p HCO2H | log p neutral | log p H3PO4 | log p acidic
17 | COc1cc(-c2ccc(C)cc2)c(OC)cc1N=CN(C)C [compound 998] | – | – | – | 1.76
18 | CCN(C)C=Nc1cc(Cl)c(Oc2ccc(Cl)c(C(C)(C)C)c2)cc1C [compound 388] | 3.02 | 6.70 | – | –
19 | CCN(C)C=Nc1cc(C)c(Oc2cccc(Oc3ccccc3)c2)cc1Cl [compound 880] | 2.47 | 5.44 | 2.63 | –
20 | CCc1cc(Oc2cc(C)c(N=CN(C)CC)cc2Cl)ccc1Cl [compound 583] | 2.78 | 6.09 | – | –
21 | CC(C)(C)c1cc(Oc2cc(Cl)c(N=CN3CCCCC3)cc2Cl)ccc1Cl [compound 814] | 3.62 | 7.08 | 3.45 | –
22 | Cc1cc(N=CN(C)C(C)C)c(Cl)cc1Oc1ccc(Cl)c(C(F)(F)F)c1 [compound 894] | 2.55 | – | 1.73 | –
23 | CCN(C)C=Nc1cc(C(F)(F)F)c(-c2ccc(C(C)(C)C)cc2)cc1Cl [compound 962] | – | 6.15 | – | 2.74
24 | CCC(C)N(C)C=Nc1cc(Cl)c(Oc2ccc(Cl)c(C(C)(C)C)c2)cc1C (centres unmarked) [compound 579] | 3.19 | 7.36 | – | 3.19
25 | CCN(C)C=Nc1cc(Br)c(Oc2ccc(Cl)c(C(C)(C)C)c2)cc1C [compound 697] | – | – | – | 2.67
26 | CCc1cc(Oc2cc(C)c(N=CN3CCCCC3)cc2Cl)ccc1Cl [compound 587] | 2.74 | 6.73 | – | –
27 | CCN(C)C=Nc1cc(OC)c(Oc2ccc(Cl)c(C(F)(F)F)c2)cc1OC [compound 986] | – | 4.14 | – | 2.23
28 | CN(C)C=Nc1cc(Cl)c(Oc2ccc(Cl)c(C(F)(F)F)c2)cc1Cl [compound 815] | 2.45 | 5.15 | 2.35 | –
29 | CCN(C)C=Nc1cc(F)c(Oc2cccc(C(C)(C)C)c2)cc1F [compound 830] | – | – | – | 2.4
30 | CCN(C)C=Nc1cc(Cl)c(Oc2nc(C3(Cl)CC3)ns2)cc1C [compound 612] | – | – | – | 1.72
31 | CCN(C)C=Nc1cc(F)c(-c2ccc(Cl)c(C(F)(F)F)c2)cc1F [compound 854] | – | – | – | 2.22

The remaining lines, values ahead:

Row | log p HCO2H | log p neutral | log p H3PO4 | log p acidic | SMILES
32 | – | – | – | 2.6 | Cc1cc(-c2cccc(C(C)C)c2)c(C(F)F)cc1N=CN1CCCCC1 [compound 799]
33 | 3.03 | 6.79 | – | – | CCCN(C)C=Nc1cc(Cl)c(Oc2ccc(Cl)c(C(C)C)c2)cc1C [compound 571]
34 | 2.14 | 5.35 | – | 1.92 | Cc1cc(Oc2ccc(C#N)c(C(F)(F)F)c2)c(C)cc1N=CN1CCCCC1 [compound 228]
35 | – | 4.53 | – | 2.05 | CCN(C)C=Nc1cc(C)c(Oc2cccc(-c3cccnc3Cl)c2)cc1C [compound 130]
36 | 2.8 | 5.88 | 2.74 | – | CC(C)N(C)C=Nc1cc(Cl)c(Oc2ccc(Cl)c(C(F)(F)F)c2)cc1Cl [compound 817]
37 | – | – | – | 2.64 | CCN(C)C=Nc1cc(Cl)c(Oc2cc(Cl)cc(C(F)(F)F)c2)cc1C [compound 565]
38 | 2.45 | 5.58 | 2.61 | – | CCN(C)C=Nc1cc(C)c(Oc2ccc(C(C)C)cc2)cc1Cl [compound 888]
39 | 2.84 | 6.58 | – | – | CCN(C)C=Nc1cc(Cl)c(Oc2ccc(Br)c(C(C)C)c2)cc1C [compound 589]
40 | – | – | – | 2.94 | CCN(C)C=Nc1cc(C(F)(F)F)c(Oc2cccc(C(C)(C)C)c2)cc1C [compound 761]
41 | 3.04 | 6.41 | 2.81 | – | CC(C)(C)c1cccc(Oc2cc(Cl)c(N=CN3CCCCC3)cc2Cl)c1 [compound 809]
42 | 2.55 | 5.79 | 2.76 | – | CCN(C)C=Nc1cc(C)c(Oc2cccc(C(C)(C)C)c2)cc1Cl [compound 870]
43 | 2.21 | – | – | 2.21 | Cc1cc(Oc2nc(C(C)(C)C)ns2)c(Cl)cc1N=CN1CCCCC1 [compound 610]
44 | – | 4.92 | – | 2.1 | CCN(C)C=Nc1cc(C)c(Oc2nc(C(C)(C)C)ns2)cc1Cl [compound 916]
45 | – | 6.21 | – | 2.37 | Cc1cc(Oc2cc(F)cc(Br)c2)c(C)cc1N=CN(C)C(C)C [compound 321]
46 | 2.78 | 5.39 | 2.61 | – | CN(C)C=Nc1cc(C(F)(F)F)c(Oc2ccc(Cl)c(C(F)(F)F)c2)cc1Cl [compound 947]
47 | – | 6.92 | – | 3.21 | Cc1cc(Oc2ccc(Br)c(C(C)C)c2)c(Cl)cc1N=CN(C)C(C)C [compound 591]
